{"source": "patent US12065430B2", "about": "“Indazole compound or salt thereof” (TAIHO PHARMACEUTICAL CO., LTD., priority 2018, dated 2024)", "data": [{"biological_target": "G12C K-Ras4B (1-169) (Homo sapiens (Human), UniProt P01116, G12C)", "sequence (P01116 other isoform, or with tags, fused parts or gaps G12C)": "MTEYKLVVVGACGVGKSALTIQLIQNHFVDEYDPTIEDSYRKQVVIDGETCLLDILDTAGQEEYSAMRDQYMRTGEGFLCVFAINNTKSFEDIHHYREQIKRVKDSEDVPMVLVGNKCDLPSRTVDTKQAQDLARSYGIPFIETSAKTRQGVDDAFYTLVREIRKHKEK", "assay": "Test of compounds on whether to bind to KRASG12C (LC-MS compound binding rate)", "conditions": "final compound concentration of 2 μM, 1 μM protein, 25° C. for 2 hours", "description": "Test compounds were prepared in the form of a 10 mM DMSO solution.\nK-Ras4B (1-169) and G12C K-Ras4B (1-169) proteins were mixed and diluted with a buffer (1×TBS, 0.1 mM TCEP) to prepare individual 1 μM protein solutions. A 10 mM test compound was diluted tenfold with DMSO to make a 1 mM solution, and then diluted fivefold with DMSO to make a 200 μM solution. The 200 μM solution was further diluted fivefold to make a 40 μM solution. When the final compound concentration was 10 μM, 1 μL of a 200 μM test compound was added to 19 μL of a 1 μM protein solution. When the final compound concentration was 2 μM, 1 μL of a 40 μM test compound was added to 19 μL of a 1 μM protein solution. The mixtures were stored in an incubator at 25° C. for 2 hours, and 80 μL of a 1×TBS solution containing 0.2% formic acid was added thereto to end the reaction, followed by LC-MS measurement. LC-MS measurement was performed using Xevo G2-S Q-Tof manufactured by Waters, and reverse-phase chromatography was performed with a desalting column. A mass spectrum of positive ions was obtained by electrospray. For a mass spectrum, a spectrum of a polyvalent ion was collectively converted to a molecular weight by using OpenLynx software by the MaxEnt technique, and a compound binding rate was obtained from the ratio of a signal intensity that corresponds to the molecular weight of a protein to a signal intensity that corresponds to the molecular weight of a compound binding to the protein.\nBy obtaining the compound binding rate for K-Ras4B (1-169) and the compound binding rate for G12C K-Ras4B (1-169) at the same time, information of the selectivity for G12C K-Ras4B (1-169) was obtained at the same time.\nThe test compounds were measured at their final compound concentration of 2 μM. […] Almost no compounds of the present invention binded to K-Ras4B (1-169). The “binding rate” (%) for each of K-Ras4B (1-169) and G12C K-Ras4B (1-169) refers to the ratio of the signal intensity of binded forms to the sum of the signal intensity of non-binded forms and the signal intensity of binded forms.", "values": [{"compound": "C=CC(=O)NC1CN(C(=O)c2c(C)nc(CNc3n[nH]c4cc(Cl)c(C(C)(C)C)cc34)n2C)C1", "note": "[Example 46, N-(1-(2-(((5-(tert-butyl)-6-chloro-1H-indazol-3-yl)amino)methyl)-1,4-dimethyl-1H-imidazole-5-carbonyl)azetidin-3-yl) acrylamide]", "binding rate for G12C K-Ras4B (1-169)": "B (a binding rate of 60% or more and less than 80% is rated “B,”)"}, {"compound": "C=CC(=O)N1CCC(NC(=O)c2c(C)nc(CNc3n[nH]c4cc(Cl)c(C(C)(C)C)cc34)n2C)CC1", "note": "[Example 47, N-(1-acryloylpiperidin-4-yl)-2-(((5-(tert-butyl)-6-chloro-1H-indazol-3-yl)amino)methyl)-1,4-dimethyl-1H-imidazole-5-carboxamide]", "binding rate for G12C K-Ras4B (1-169)": "C (a binding rate of 40% or more and less than 60% is rated “C,”)"}, {"compound": "C=CC(=O)N1CCC(NC(=O)c2c(C)nc(CNc3n[nH]c4cc(Cl)c(C(C)(C)C)cc34)n2C)C1", "note": "(stereo not shown) [Example 48, N-(1-acryloylpyrrolidin-3-yl)-2-(((5-(tert-butyl)-6-chloro-1H-indazol-3-yl)amino)methyl)-1,4-dimethyl-1H-imidazole-5-carboxamide]", "binding rate for G12C K-Ras4B (1-169)": "B (a binding rate of 60% or more and less than 80% is rated “B,”)"}, {"compound": "C=CC(=O)N1CC(N(C)C(=O)c2c(C)nc(CNc3n[nH]c4cc(Cl)c(C(C)(C)C)cc34)n2C)C1", "note": "[Example 49, N-(1-acryloylazetidin-3-yl)-2-(((5-(tert-butyl)-6-chloro-1H-indazol-3-yl)amino)methyl)-N,1,4-trimethyl-1H-imidazole-5-carboxamide]", "binding rate for G12C K-Ras4B (1-169)": "C (a binding rate of 40% or more and less than 60% is rated “C,”)"}, {"compound": "C=CC(=O)N1CCN(C(=O)c2c(C)nc(CNc3n[nH]c4cc(Cl)c(C(C)(C)C)cc34)n2C)CC1", "note": "[Example 50, 1-(4-(2-(((5-(Tert-butyl)-6-chloro-1H-indazol-3-yl)amino)methyl)-1,4-dimethyl-1H-imidazole-5-carbonyl)piperazin-1-yl)prop-2-en-1-one]", "binding rate for G12C K-Ras4B (1-169)": "C (a binding rate of 40% or more and less than 60% is rated “C,”)"}, {"compound": "C=CC(=O)N(C)C1CN(C(=O)c2c(C)nc(CNc3n[nH]c4cc(Cl)c(C(C)(C)C)cc34)n2C)C1", "note": "[Example 51, N-(1-(2-(((5-(tert-butyl)-6-chloro-1H-indazol-3-yl)amino)methyl)-1,4-dimethyl-1H-imidazole-5-carbonyl)azetidin-3-yl)-N-methylacrylamide]", "binding rate for G12C K-Ras4B (1-169)": "B (a binding rate of 60% or more and less than 80% is rated “B,”)"}, {"compound": "C=CC(=O)N1CC(NC(=O)c2c(C)nc(CNc3n[nH]c4cc(Cl)c(C(C)(C)C)cc34)n2C)C(F)(F)C1", "note": "(stereo not shown) [Example 53, N-(1-acryloyl-4,4-difluoropyrrolidin-3-yl)-2-(((5-(tert-butyl)-6-chloro-1H-indazol-3-yl)amino)methyl)-1,4-dimethyl-1H-imidazole-5-carboxamide]", "binding rate for G12C K-Ras4B (1-169)": "B (a binding rate of 60% or more and less than 80% is rated “B,”)"}, {"compound": "C=CC(=O)N1C[C@H](NC(=O)c2c(C)nc(CNc3n[nH]c4cc(Cl)c(C(C)(C)C)cc34)n2C)C2(CC2)C1", "note": "[Example 54, (R)—N-(5-acryloyl-5-azaspiro[2.4]heptan-7-yl)-2-(((5-(tert-butyl)-6-chloro-1H-indazol-3-yl)amino)methyl)-1,4-dimethyl-1H-imidazole-5-carboxamide]", "binding rate for G12C K-Ras4B (1-169)": "B (a binding rate of 60% or more and less than 80% is rated “B,”)"}, {"compound": "C=CC(=O)N1C[C@@H](C)[C@@H](NC(=O)c2c(C)nc(CNc3n[nH]c4cc(Cl)c(C(C)(C)C)cc34)n2C)C1", "note": "[Example 55, N-((3R,4R)-1-acryloyl-4-methylpyrrolidin-3-yl)-2-(((5-(tert-butyl)-6-chloro-1H-indazol-3-yl)amino)methyl)-1,4-dimethyl-1H-imidazole-5-carboxamide]", "binding rate for G12C K-Ras4B (1-169)": "A (a binding rate of 80% or more is rated “A,”)"}, {"compound": "C=CC(=O)N1C[C@@H](O)[C@@H](NC(=O)c2c(C)nc(CNc3n[nH]c4cc(Cl)c(C(C)(C)C)cc34)n2C)C1", "note": "[Example 56, N-((3S,4R)-1-acryloyl-4-hydroxypyrrolidin-3-yl)-2-(((5-(tert-butyl)-6-chloro-1H-indazol-3-yl)amino)methyl)-1,4-dimethyl-1H-imidazole-5-carboxamide]", "binding rate for G12C K-Ras4B (1-169)": "C (a binding rate of 40% or more and less than 60% is rated “C,”)"}, {"compound": "C=CC(=O)N1C[C@@H](F)[C@@H](NC(=O)c2c(C)nc(CNc3n[nH]c4cc(Cl)c(C(C)(C)C)cc34)n2C)C1", "note": "[Example 57, N-((3S,4R)-1-acryloyl-4-fluoropyrrolidin-3-yl)-2-(((5-(tert-butyl)-6-chloro-1H-indazol-3-yl)amino)methyl)-1,4-dimethyl-1H-imidazole-5-carboxamide]", "binding rate for G12C K-Ras4B (1-169)": "C (a binding rate of 40% or more and less than 60% is rated “C,”)"}, {"compound": "C=CC(=O)N1C[C@@H](CO)[C@@H](NC(=O)c2c(C)nc(CNc3n[nH]c4cc(Cl)c(C(C)(C)C)cc34)n2C)C1", "note": "[Example 58, N-((3R,4R)-1-acryloyl-4-(hydroxymethyl)pyrrolidin-3-yl)-2-(((5-(tert-butyl)-6-chloro-1H-indazol-3-yl)amino)methyl)-1,4-dimethyl-1H-imidazole-5-carboxamide]", "binding rate for G12C K-Ras4B (1-169)": "B (a binding rate of 60% or more and less than 80% is rated “B,”)"}, {"compound": "C=CC(=O)N1C[C@H](NC(=O)c2c(C)nc(CNc3n[nH]c4cc(Cl)c(C(C)(C)C)cc34)n2C)[C@@H](C)C1", "note": "[Example 60, N-((3R,4S)-1-acryloyl-4-methylpyrrolidin-3-yl)-2-(((5-(tert-butyl)-6-chloro-1H-indazol-3-yl)amino)methyl)-1,4-dimethyl-1H-imidazole-5-carboxamide]", "binding rate for G12C K-Ras4B (1-169)": "C (a binding rate of 40% or more and less than 60% is rated “C,”)"}, {"compound": "C=CC(=O)N1C[C@H](NC(=O)c2c(C)nc(CNc3n[nH]c4cc(Cl)c(C(C)(C)C)cc34)n2C)[C@H](OC)C1", "note": "[Example 61, N-((3S,4R)-1-acryloyl-4-methoxypyrrolidin-3-yl)-2-(((5-(tert-butyl)-6-chloro-1H-indazol-3-yl)amino)methyl)-1,4-dimethyl-1H-imidazole-5-carboxamide]", "binding rate for G12C K-Ras4B (1-169)": "B (a binding rate of 60% or more and less than 80% is rated “B,”)"}, {"compound": "C=CC(=O)N1C[C@H](NC(=O)c2c(C)nc(CNc3n[nH]c4cc(Cl)c(C(C)(C)C)cc34)n2C)[C@@H](O)C1", "note": "[Example 62, N-((3S,4S)-1-acryloyl-4-hydroxypyrrolidin-3-yl)-2-(((5-(tert-butyl)-6-chloro-1H-indazol-3-yl)amino)methyl)-1,4-dimethyl-1H-imidazole-5-carboxamide]", "binding rate for G12C K-Ras4B (1-169)": "A (a binding rate of 80% or more is rated “A,”)"}, {"compound": "C=CC(=O)N1C[C@H](NC(=O)c2c(C)nc(CNc3n[nH]c4cc(Cl)c(C(C)(C)C)cc34)n2C)[C@@H](OC)C1", "note": "[Example 63, N-((3S,4S)-1-acryloyl-4-methoxypyrrolidin-3-yl)-2-(((5-(tert-butyl)-6-chloro-1H-indazol-3-yl)amino)methyl)-1,4-dimethyl-1H-imidazole-5-carboxamide]", "binding rate for G12C K-Ras4B (1-169)": "B (a binding rate of 60% or more and less than 80% is rated “B,”)"}]}]}
